Results published in publication PMC4478806 (The FASEB Journal, 2015).
Several values for one entry are separate records, joined by “and”; a condition that tells them apart may be missing. Equal entries are not always repeated. Where two headings read alike, the source gives them in different places.

Experiments:
human β1-adrenoceptor [1] = molecular target: T1, human β1-adrenoceptor (Homo sapiens, UniProt P08588); test: Association and dissociation kinetics of 10, 30 and 100 nM BODIPY-TMR-CGP in CHO-β1 cells (confocal perfusion system, single living cells); type: binding; settings: for pKD: from kon and koff(slow); for koff(fast): nonspecific component constrained to average CHO-CS dissociation rate
T1 construct: expressed in transfected cells
Procedure: (§1) Live cell fluorescence imaging was performed on the Zeiss LSM510 laser scanning confocal microscope using a Zeiss Plan-Neofluar ×40 1.3 NA oil-immersion objective in conjunction with a temperature-controlled (37°C) perfusion system to allow the visualization and quantification of BODIPY-TMR-CGP dissociation kinetics under infinite dilution (ID) conditions in single living cells ([25]). Kinetic experiments were performed as described by May et al. ([25]). In brief, cells were grown to near confluence on 32 mm glass coverslips in 6-well plates 1 d prior to experimentation. On the day of experimentation, the coverslip was placed into a tightly closed imaging chamber on a heated (37°C) microscope stage, where it was connected to tubes to facilitate the flow of imaging buffer through the imaging chamber in the absence and presence of BODIPY-TMR-CGP and/or unlabeled ligands at a constant flow rate of ≥4 ml/min.
(§2) For association and dissociation kinetic experiments of 10–100 nM BODIPY-TMR-CGP in CHO-β1 and CHO-CS cells, the cells were exposed to imaging buffer only (30 s baseline fluorescence recording), then BODIPY-TMR-CGP (4.5 min association), and followed again by imaging buffer only (4.5 min dissociation). BODIPY-TMR-CGP was excited using a 543 nm helium-neon laser with emission collected through a 565 nm long-pass filter every 3 s throughout each experiment (512 × 512 pixels, averaging at 2 frames). The pinhole diameter (1 airy unit), laser power (2%), offset, and gain remained constant between the 3 BODIPY-TMR-CGP concentrations and the 2 cell lines used. Membrane-associated BODIPY-TMR-CGP fluorescence was measured by drawing regions of interest (ROIs) around the membranes of 10 single cells of each imaged coverslip, and changes in the average pixel intensity values for each ROI over time were analyzed to obtain association and dissociation rates for each experiment.
(§3) GraphPad Prism 5.0 (GraphPad Software, San Diego, CA, USA) was used to fit all data presented in this study. Association kinetic data were fitted using the following monoexponential association equation: [drawing 1] where Y0 is the level of BODIPY-TMR-CGP binding at time t = 0 (i.e., baseline fluorescence), Plateau is the level of BODIPY-TMR-CGP binding at infinite time, and konobs is the rate of observed association.
The koff is the dissociation rate of BODIPY-TMR-CGP. Where a level of nonspecific binding >10% of total binding was observed, the dissociation kinetic data were fitted to a 2-phase exponential decay function [drawing 5] where Plateau and t are as defined above, and Spanfast and Spanslow represent the proportion of Y0-Plateau accounted for by the fast (koff(fast)) and slow (koff(slow)) dissociation rate, respectively. Within this analysis, koff(fast) and Plateau was constrained to the average rate of dissociation and the average Plateau (in %) reached by BODIPY-TMR-CGP in control CHO-CS cells (i.e., cell not expressing the receptor of interest to determine the nonspecific BODIPY-TMR-CGP binding component).

[2] = molecular target: T2, β1YFPN/β1YFPC BiFC-constrained β1-adrenoceptor homodimers (Homo sapiens, UniProt P08588); test: 3 nM BODIPY-TMR-CGP dissociation at BiFC-constrained wild-type β1-adrenoceptor homodimers in CHO-K1 cells; type: binding; settings: infinite dilution, absence of unlabeled ligands
T2 construct: to the C-terminal end of the full-length wild-type human β1-adrenoceptor; expressed in transfected cells; host or cells: CHO-K1 cells, transient co-transfection (pcDNA3.1)
Source text: (§4) The SNAP-β1 construct was generated by fusing the SNAP-tag (New England Biolabs, Ipswich, MA, USA) to the N-terminal end of the wild-type human β1-adrenoceptor. The […] mutation ([7]) was introduced into the β1-YFPC and the SNAP-β1 sequence using the QuikChange site-directed mutagenesis kit (Agilent Technologies, Cheshire, United Kingdom). All sequences were confirmed by DNA sequencing. All receptor constructs were subcloned into pcDNA3.1 vectors. In bimolecular fluorescence complementation (BiFC) experiments, CHO-K1 cells were seeded onto coverslips on day 1 and transiently transfected with YFPN- and YFPC-tagged β1-adrenoceptor recombinant DNA (750 ng total) using Lipofectamine 2000 and Opti-MEM medium according to the manufacturer's instructions on day 2. […] In BiFC experiments, membrane-associated BODIPY-TMR-CGP fluorescence was measured by drawing ROIs around membranes of cells that were identified to express BiFC-constrained homodimers by examination of the YFP fluorescence. […] The koff is the dissociation rate of BODIPY-TMR-CGP. […] Within this analysis, koff(fast) and Plateau was constrained to the average rate of dissociation and the average Plateau (in %) reached by BODIPY-TMR-CGP in control CHO-CS cells (i.e., cell not expressing the receptor of interest to determine the nonspecific BODIPY-TMR-CGP binding component).

human β1-adrenoceptor [3] = molecular target: T1, human β1-adrenoceptor; test: 3 nM BODIPY-TMR-CGP kinetics and influence of unlabeled ligands on its dissociation rate in CHO-β1 cells under infinite dilution; type: binding
[4] = molecular target: T3, SNAP-β1D138A β1-adrenoceptor (Homo sapiens, UniProt P08588, D138A); test: Confocal imaging of 3 nM BODIPY-TMR-CGP binding to SNAP-tagged D138A β1-adrenoceptor in CHO-K1 cells; settings: CHO-K1 cells transiently transfected with SNAP-β1D138A, 10 min
T3 construct: expressed in transfected cells; host or cells: CHO-K1 cells, transient transfection (pcDNA3.1)
Source text: The β1-yellow fluorescent protein (YFP)N and β1-YFPC receptor constructs were generated by fusing either the N-terminal fragment of YFP (YFPN; amino acids 1–155) or the C-terminal fragment of YFP (YFPC; amino acids 156–239) to the C-terminal end of the full-length wild-type human β1-adrenoceptor. The SNAP-β1 construct was generated by fusing the SNAP-tag (New England Biolabs, Ipswich, MA, USA) to the N-terminal end of the wild-type human β1-adrenoceptor. The D138A mutation ([7]) was introduced into the β1-YFPC and the SNAP-β1 sequence using the QuikChange site-directed mutagenesis kit (Agilent Technologies, Cheshire, United Kingdom). All sequences were confirmed by DNA sequencing. All receptor constructs were subcloned into pcDNA3.1 vectors.
Confocal microscopy was performed using a Zeiss LSM710 laser scanning microscope with a ×40 1.3 NA oil immersion lens. CHO-K1 cells were grown to 70% confluence in 8-well Labtek borosilicate chambered-cover glasses (Nalgene Nunc International, Fisher Scientific) and transiently transfected with SNAP-β1 or SNAP-β1D138A recombinant DNA using Lipofectamine 2000 and Opti-MEM medium according to the manufacturer’s instructions. […]

CHO-CS cells = test: Association and dissociation of BODIPY-TMR-CGP in control CHO-CS cells (nonspecific binding); design: species or system Chinese hamster; settings: for koff(fast) / konobs: CHO-CS cells
Source text: Chinese hamster ovary (CHO)-K1 cells were used for all transient transfections. CHO-K1 cells stably expressing the secreted placental alkaline phosphatase reporter gene under the transcriptional control of a 6-cAMP response element promoter (CHO-CS cells) were used as a control, as appropriate. CHO-CS cell lines either expressing human wild-type β1-adrenoceptors (CHO-β1 cells; 1147 fmol/mg protein) ([6]) or human β1-adrenoceptors containing 11 amino acid mutations (G177V, L178I, V179I, C180L, T181M, A184I, I185V, A187G, V189T, L195Q, and W199Y that convert TM4 to the equivalent residues in the β2-adrenoceptor; CHO-β1TM4 cells) ([11]) were used. CHO-K1, CHO-CS, CHO-β1, and CHO-β1TM4 cells were grown at 37°C in CHO growth medium [DMEM/Ham's nutrient mixture F12 containing 10% (v/v) fetal calf serum and 2 mM L-glutamine] in a humidified 5% CO2/95% air atmosphere.
as §1, §2, §3
The koff is the dissociation rate of BODIPY-TMR-CGP. […]

human β1-adrenoceptor [5] = molecular target: T1, human β1-adrenoceptor; settings: cited from earlier work
[6] = molecular target: T4, β1YFPN/β1D138AYFPC BiFC-constrained β1-adrenoceptor homodimers (Homo sapiens, UniProt P08588); test: 3 nM BODIPY-TMR-CGP dissociation at BiFC-constrained wild-type/nonligand-binding β1-adrenoceptor homodimers in CHO-K1 cells; settings: infinite dilution, absence of unlabeled ligands
T4 construct: to the C-terminal end of the full-length wild-type human β1-adrenoceptor; expressed in transfected cells; host or cells: CHO-K1 cells, transient co-transfection (pcDNA3.1)
Source text: as §4

[7] = molecular target: T5, human β1-adrenoceptors containing 11 amino acid mutations that convert TM4 to the β2-adrenoceptor residues (CHO-β1TM4 cells) (Homo sapiens, UniProt P08588, A184I/A187G/C180L/G177V/I185V/L178I/L195Q/T181M/V179I/V189T/W199Y); test: 3 nM BODIPY-TMR-CGP dissociation in absence and presence of unlabeled ligands in CHO-β1TM4 cells; type: binding; settings: infinite dilution, absence of unlabeled ligands
T5 construct: expressed in transfected cells
Procedure: Chinese hamster ovary (CHO)-K1 cells were used for all transient transfections. CHO-K1 cells stably expressing the secreted placental alkaline phosphatase reporter gene under the transcriptional control of a 6-cAMP response element promoter (CHO-CS cells) were used as a control, as appropriate. […] In BiFC experiments, membrane-associated BODIPY-TMR-CGP fluorescence was measured by drawing ROIs around membranes of cells that were identified to express BiFC-constrained homodimers by examination of the YFP fluorescence. […] The koff is the dissociation rate of BODIPY-TMR-CGP. […] Within this analysis, koff(fast) and Plateau was constrained to the average rate of dissociation and the average Plateau (in %) reached by BODIPY-TMR-CGP in control CHO-CS cells (i.e., cell not expressing the receptor of interest to determine the nonspecific BODIPY-TMR-CGP binding component).

[8] = 3 nM BODIPY-TMR-CGP, global fit of association and dissociation traces
[9] = 3 nM BODIPY-TMR-CGP, based on affinity from functional assays

T2 sequence (P08588 whole entry): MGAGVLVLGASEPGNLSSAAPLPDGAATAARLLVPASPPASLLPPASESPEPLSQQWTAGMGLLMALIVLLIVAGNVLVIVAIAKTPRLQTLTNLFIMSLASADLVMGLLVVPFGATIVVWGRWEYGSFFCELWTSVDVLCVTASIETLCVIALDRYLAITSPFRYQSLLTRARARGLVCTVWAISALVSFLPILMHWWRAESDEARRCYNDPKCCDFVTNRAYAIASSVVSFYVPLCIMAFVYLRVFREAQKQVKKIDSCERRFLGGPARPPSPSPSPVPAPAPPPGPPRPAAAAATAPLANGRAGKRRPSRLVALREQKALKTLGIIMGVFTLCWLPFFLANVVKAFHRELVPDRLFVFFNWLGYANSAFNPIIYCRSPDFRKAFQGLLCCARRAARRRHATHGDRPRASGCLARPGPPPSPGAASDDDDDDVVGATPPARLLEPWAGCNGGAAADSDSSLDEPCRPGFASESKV
T2 sequence (P08588 whole entry): as above
T1 sequence (P08588 whole entry, the tested form may be a part): as the sequence (P08588 whole entry) above
T4 sequence (P08588 whole entry): as above
T4 sequence (P08588 whole entry D138A partner): as the sequence (P08588 whole entry) above, with D138A counted along it
T5 sequence (P08588 whole entry G177V/L178I/V179I/C180L/T181M/A184I/I185V/A187G/V189T/L195Q/W199Y): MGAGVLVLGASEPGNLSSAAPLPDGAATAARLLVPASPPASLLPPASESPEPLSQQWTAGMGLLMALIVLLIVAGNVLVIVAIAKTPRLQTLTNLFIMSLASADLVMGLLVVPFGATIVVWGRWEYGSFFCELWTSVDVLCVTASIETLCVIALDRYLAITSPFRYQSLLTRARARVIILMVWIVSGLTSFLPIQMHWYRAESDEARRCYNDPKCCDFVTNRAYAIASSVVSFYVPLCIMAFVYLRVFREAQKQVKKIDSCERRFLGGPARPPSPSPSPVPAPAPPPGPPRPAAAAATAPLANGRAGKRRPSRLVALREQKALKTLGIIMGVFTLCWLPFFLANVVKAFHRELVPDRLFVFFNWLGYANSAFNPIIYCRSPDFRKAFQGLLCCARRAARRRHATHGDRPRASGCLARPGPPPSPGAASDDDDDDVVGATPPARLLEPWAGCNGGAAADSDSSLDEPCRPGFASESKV
T3 sequence (P08588 whole entry D138A): as the sequence (P08588 whole entry) above, with D138A counted along it

bordifluoropyrromethane-tetramethylrhodamine-(±)CGP 12177 [BODIPY-TMR-CGP]
kon (human β1-adrenoceptor [1]; 10 nM BODIPY-TMR-CGP): 5.29 ± 0.79 ×10^7 M^−1⋅min^−1
konobs (human β1-adrenoceptor [1]; 10 nM BODIPY-TMR-CGP): 0.63 ± 0.08 min⁻¹
pKD (human β1-adrenoceptor [1]; 10 nM BODIPY-TMR-CGP): 8.71 ± 0.05
koff(slow) (human β1-adrenoceptor [1]; 10 nM BODIPY-TMR-CGP, monoexponential dissociation): 0.09 ± 0.01 min⁻¹
kon (human β1-adrenoceptor [1]; 30 nM BODIPY-TMR-CGP): 5.17 ± 0.28 ×10^7 M^−1⋅min^−1
konobs (human β1-adrenoceptor [1]; 30 nM BODIPY-TMR-CGP): 1.64 ± 0.08 min⁻¹
koff(slow) (human β1-adrenoceptor [1]; 30 nM BODIPY-TMR-CGP, 2-phase decay): 0.09 ± 0.01 min⁻¹
pKD (human β1-adrenoceptor [1]; 30 nM BODIPY-TMR-CGP): 8.77 ± 0.08
koff(fast) (human β1-adrenoceptor [1]; 30 nM BODIPY-TMR-CGP): 0.0412 s⁻¹
kon (human β1-adrenoceptor [1]; 100 nM BODIPY-TMR-CGP): 2.94 ± 0.12^*^,^# ×10^7 M^−1⋅min^−1
konobs (human β1-adrenoceptor [1]; 100 nM BODIPY-TMR-CGP): 3.08 ± 0.11 min^−1 and 3.08 ± 0.11^*^,^# min^−1
koff(slow) (human β1-adrenoceptor [1]; 100 nM BODIPY-TMR-CGP, 2-phase decay): 0.14 ± 0.02^*^,^# min^−1
pKD (human β1-adrenoceptor [1]; 100 nM BODIPY-TMR-CGP): 8.32 ± 0.06^*^,^#
koff(fast) (human β1-adrenoceptor [1]; 100 nM BODIPY-TMR-CGP): 0.0412 s⁻¹
koff of 3 nM BODIPY-TMR-CGP [2]: 0.00033 ± 0.00017 s⁻¹ and 0.00033 s⁻¹
association rate constant (kon) (human β1-adrenoceptor [3]; [8]): 5.27 ± 0.53 × 10^7 M^−1⋅min^−1
dissociation rate (koff) (human β1-adrenoceptor [3]; [8]): 0.0013 ± 0.00017 s⁻¹
pKD (human β1-adrenoceptor [3]; [8]): 8.83 ± 0.06
koff of 3 nM BODIPY-TMR-CGP (human β1-adrenoceptor [3]; infinite dilution, absence of unlabeled ligands, 1-phase dissociation): 0.0015 ± 0.00017 s⁻¹ and 0.0015 s⁻¹
binding of 3 nM BODIPY-TMR-CGP (membrane fluorescence) [4]: no binding
koff(fast) (CHO-CS cells; 30 nM BODIPY-TMR-CGP): 0.041 ± 0.008 s⁻¹
konobs (CHO-CS cells; 30 nM BODIPY-TMR-CGP): 1.40 ± 0.26 min⁻¹
koff(fast) (CHO-CS cells; 100 nM BODIPY-TMR-CGP): 0.0412 ± 0.00217 s⁻¹
konobs (CHO-CS cells; 100 nM BODIPY-TMR-CGP): 1.62 ± 0.13 min⁻¹
average dissociation rate obtained in CHO-CS cells (CHO-CS cells; average over BODIPY-TMR-CGP concentrations, used as constraint for koff(fast)): 2.47 min⁻¹
occupancy of the high-affinity β1-adrenoceptor conformation (human β1-adrenoceptor [5]; [9]): ~86%
occupancy of the secondary low-affinity β1-adrenoceptor conformation (human β1-adrenoceptor [5]; [9]): ~3%
Kd (human β1-adrenoceptor [5]; functional studies, read-out: affinity value for the high-affinity (orthosteric) β1-adrenoceptor conformation): 0.6 nM
Kd (human β1-adrenoceptor [5]; read-out: affinity value for the low-affinity β1-adrenoceptor conformation): 87 nM
koff of 3 nM BODIPY-TMR-CGP [6]: 0.0009 ± 0.000183 s⁻¹ and 0.00083 ± 0.00017 s⁻¹
koff of 3 nM BODIPY-TMR-CGP [7]: 0.0011 ± 8.3e-05 s⁻¹ and 0.0012 ± 0.00033 s⁻¹
